Experimental findings from patent US9062041B2 (Bayer Intellectual Property GmbH, priority 2011, dated 2015) are described below.

For experiment [1], the target named is EP2 subtype of the human PGE2 receptor (Homo sapiens, UniProt P43116). The experiment in a line: cAMP antagonism test on the human EP2 receptor (HTRF cAMP detection). The class given is cell-based. The following applies: hEP2 receptor, read-out: Antagonism hEP2 IC50. In a few lines:
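Read-out is a competitive HTRF for cAMP: lysate cAMP displaces cAMP-d2 from Eu cryptate-labelled antibody, and antagonism raises the 665/620 nm ratio. Compound (0.8 nM–16.5 μM) added to EP2 cells 20 min at RT before 60 min PGE2 challenge (3× stock 1.5 nM) with IBMX, followed by 20 min lysis.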
(TR-FRET usually uses a lanthanide donor and a delayed reading to cut background.)

Experiment [2] addresses EP4 subtype of the human PGE2 receptor (Homo sapiens, UniProt P35408). Briefly: cAMP antagonism test on the human EP4 receptor (HTRF cAMP detection). The class given is cell-based. Conditions: selectivity towards hEP4, IC50 measured by cAMP antagonism test. The procedure, abridged: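 Competitive HTRF cAMP read-out (cAMP-d2 vs Eu-cryptate anti-cAMP antibody, 665/620 nm ratio) on lysed human EP4 cells. Compound (0.8 nM–16.5 μM) applied 20 min at RT before 60 min PGE2 challenge (3× solution 0.3 nM, IBMX present); 20 min lysis precedes reading.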

Experiment [3] has as its target T1, human PGD receptor (Homo sapiens, UniProt Q13258).
T1 sequence (Q13258 1-359): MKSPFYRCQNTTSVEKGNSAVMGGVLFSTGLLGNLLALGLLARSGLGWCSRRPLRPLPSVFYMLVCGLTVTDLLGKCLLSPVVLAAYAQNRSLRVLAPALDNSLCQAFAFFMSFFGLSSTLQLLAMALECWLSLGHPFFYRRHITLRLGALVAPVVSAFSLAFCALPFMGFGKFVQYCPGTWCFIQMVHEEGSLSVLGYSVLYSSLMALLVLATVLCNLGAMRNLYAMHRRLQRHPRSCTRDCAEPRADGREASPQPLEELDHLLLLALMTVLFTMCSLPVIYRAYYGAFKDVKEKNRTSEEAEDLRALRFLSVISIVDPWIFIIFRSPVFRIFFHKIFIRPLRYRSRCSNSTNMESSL
Briefly: cAMP antagonism test on the human prostaglandin D receptor (HTRF cAMP detection). Type of experiment: cell-based. Conditions: selectivity towards hDP, IC50 measured by cAMP antagonism test. The procedure, abridged: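 HTRF competition read-out (665/620 nm ratio ×10000), where higher FRET means less cAMP, i.e. antagonism. Compounds (0.8 nM–16.5 μM) were preincubated 20 min at RT with cells and cAMP-d2, PGD2 (3× solution, 6 nM) in IBMX-containing PBS added for 30 min at RT, then cells lysed 20 min.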

The test system of experiment [4] is female cynomolgus monkeys (Macaca Fascicularis). Briefly: In-vivo action on fertility in non-human primates (mating study). Conditions: 6 months, 10 mg/kg (Example 17 once daily, Example 56 twice daily). The method, then:
4.4 In-Vivo Action on Fertility in Non-Human Primates (Cynomolgus):
In order to study the effect of substances on fertility, mating studies can be performed in monkeys (Jensen et al. Contraception 81 (2010) 165-171). For this, the test substances are administered to female cynomolgus monkeys (Macaca Fascicularis) which are being kept in groups, then the animals are mated with a male animal. Matings are checked for by sperm detection in daily vaginal smears. Pregnancies resulting therefrom are identified by hormone determinations and ultrasound examinations. Through the changes in the serum oestradiol concentrations during the cycle, (rise before the midcycle LH peak), the fertile phase within a cycle of the individual animals can be determined Matings in this fertile period are described as “timed matings” (matings in the fertile phase). Apart from the absolute number of pregnancies occurring, the effect on the fertility can also be expressed as pregnancies per “timed matings”.
To test the action of EP2 receptor antagonists on fertility in monkeys, Examples 17 and 56 according to the invention were administered over 6 months, dissolved in 0.5 ml castor oil. Example 17 was administered once daily at a dosage of 10 mg/kg (n=10 animals), while Example 56 was administered twice daily at a dosage of 10 mg/kg (n=9 animals). Only the vehicle was administered to a control group (n=10 animals). In the first month of the treatment, no male animal was placed with the female animals. After this, female and male animals were kept together over 5 months, with detection of pregnancies and cycle monitoring.

Experiment [5] concerns cumulus-oocyte complexes. Briefly: Cumulus expansion test in vitro. Conditions: Mus musculus, 0.3 μM PGE2 for stimulation. Type of experiment: cell-based, mice (strain: B6D2F1). On the procedure: 4.2. Cumulus Expansions Test In Vitro In immature female mice (strain: B6D2F1 from Charles River), at an age of 14-18 days, the folliculogenesis was induced by a single administration (intraperitoneal) of 10 IU of PMSG (pregnant mare serum gonadotropin; Sigma G-4877, Lot 68H0909). 47-50 hours after the injection, the ovaries were removed and the cumulus-oocyte complexes removed. At this stage, the cumulus complex is not yet expanded. The cumulus-oocyte complexes were now incubated for 20-24 hours with prostaglandin E2 (PGE) (0.3 μM), vehicle control (ethanol) or test substances. Medium: alpha-MEM medium with 0.1 mM IBMX, pyruvate (0.23 mM), glutamine (2 mM), pen/strep 100 IU/ml pen. and 100 μg/ml strep.), HSA (8 mg/ml) and foetal bovine serum (FBS, 10%). The cumulus expansion was then established through the subdivision into four stages (after Vanderhyden et al. Dev Biol. 1990 August; 140(2):307-317).

Chain of EP4 subtype of the human PGE2 receptor (P35408 whole entry): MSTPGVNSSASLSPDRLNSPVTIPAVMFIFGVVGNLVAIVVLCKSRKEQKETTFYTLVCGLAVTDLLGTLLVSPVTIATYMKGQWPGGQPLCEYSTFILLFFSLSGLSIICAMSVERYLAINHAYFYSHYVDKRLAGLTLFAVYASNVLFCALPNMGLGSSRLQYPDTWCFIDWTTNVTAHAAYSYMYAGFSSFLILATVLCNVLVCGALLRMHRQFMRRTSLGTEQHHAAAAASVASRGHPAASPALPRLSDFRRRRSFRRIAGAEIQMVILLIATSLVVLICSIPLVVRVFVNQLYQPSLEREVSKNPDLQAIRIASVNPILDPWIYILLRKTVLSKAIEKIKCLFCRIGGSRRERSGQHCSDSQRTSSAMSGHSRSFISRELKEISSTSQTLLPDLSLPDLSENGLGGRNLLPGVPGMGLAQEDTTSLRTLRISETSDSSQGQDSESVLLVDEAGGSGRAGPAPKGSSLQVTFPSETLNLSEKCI
Chain of EP2 subtype of the human PGE2 receptor (P43116 whole entry): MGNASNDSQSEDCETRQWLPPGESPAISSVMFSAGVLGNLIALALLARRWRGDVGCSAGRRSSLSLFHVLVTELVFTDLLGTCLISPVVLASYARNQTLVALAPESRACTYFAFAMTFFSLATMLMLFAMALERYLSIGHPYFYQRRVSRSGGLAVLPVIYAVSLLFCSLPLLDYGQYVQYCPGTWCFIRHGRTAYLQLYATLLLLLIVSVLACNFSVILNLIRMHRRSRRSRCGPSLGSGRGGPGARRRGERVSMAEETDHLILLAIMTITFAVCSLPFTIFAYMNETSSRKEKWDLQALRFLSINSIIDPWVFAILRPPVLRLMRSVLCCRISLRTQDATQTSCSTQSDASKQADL

Turning to `COCCNC(=O)c1ccc2nn(CC3CCN(C(=O)c4ccc(Cl)cc4)CC3)cc2c1C` [Example 56, 2-{[1-(4-chlorobenzoyl)piperidin-4-yl]methyl}-N-(2-methoxyethyl)-4-methyl-2H-indazol-5-carboxamide], the IC50 in experiment [1] stood at 13.1 nM. The “Selectivity hEP2/hEP4” value in experiment [2] is on record as “xxx (xxx > 100)”. In experiment [3], the “Selectivity hEP2/hDP” value is recorded as “xxx (xxx > 100)”. Moreover, in experiment [4], the “% Pregnancies/"timed mating"” value worked out at 12% and the Pregnancies is 2.

With `COCCNC(=O)c1ccc2nn(CC3CCN(C(=O)c4ccc(Oc5ccc(C(F)(F)F)cn5)cc4)CC3)cc2c1C` [Example 345, N-(2-methoxyethyl)-4-methyl-2-{[1-(4-{[5-(trifluoromethyl)pyridin-2-yl]oxy}-benzoyl)piperidin-4-yl]methyl}-2H-indazol-5-carboxamide], the half-maximal inhibitory concentration (IC50) in experiment [1] was 6.26 nM. In addition, in experiment [2], the “Selectivity hEP2/hEP4” value is given as “xxx (xxx > 100)”. For the same compound, the “Selectivity hEP2/hDP” value in experiment [3] is recorded as “xxx (xxx > 100)”. Moreover, the inhibition at 1 µM in experiment [5] (1 μM, read-out: % reduction at 1 μM (reduction in the cumulus expansion)) is 36%. In addition, the inhibition at 0.5 µM in experiment [5] (0.5 μm, read-out: % reduction at 0.5 μm (reduction in the cumulus expansion)) came to 18%.

By IC50 is commonly meant the point on the concentration scale where inhibition reaches its midpoint.
